One test addresses T1, ERCC1-XPF endonuclease (Homo sapiens, UniProt P07992+Q92889).
T1 sequence (Q92889 1-916): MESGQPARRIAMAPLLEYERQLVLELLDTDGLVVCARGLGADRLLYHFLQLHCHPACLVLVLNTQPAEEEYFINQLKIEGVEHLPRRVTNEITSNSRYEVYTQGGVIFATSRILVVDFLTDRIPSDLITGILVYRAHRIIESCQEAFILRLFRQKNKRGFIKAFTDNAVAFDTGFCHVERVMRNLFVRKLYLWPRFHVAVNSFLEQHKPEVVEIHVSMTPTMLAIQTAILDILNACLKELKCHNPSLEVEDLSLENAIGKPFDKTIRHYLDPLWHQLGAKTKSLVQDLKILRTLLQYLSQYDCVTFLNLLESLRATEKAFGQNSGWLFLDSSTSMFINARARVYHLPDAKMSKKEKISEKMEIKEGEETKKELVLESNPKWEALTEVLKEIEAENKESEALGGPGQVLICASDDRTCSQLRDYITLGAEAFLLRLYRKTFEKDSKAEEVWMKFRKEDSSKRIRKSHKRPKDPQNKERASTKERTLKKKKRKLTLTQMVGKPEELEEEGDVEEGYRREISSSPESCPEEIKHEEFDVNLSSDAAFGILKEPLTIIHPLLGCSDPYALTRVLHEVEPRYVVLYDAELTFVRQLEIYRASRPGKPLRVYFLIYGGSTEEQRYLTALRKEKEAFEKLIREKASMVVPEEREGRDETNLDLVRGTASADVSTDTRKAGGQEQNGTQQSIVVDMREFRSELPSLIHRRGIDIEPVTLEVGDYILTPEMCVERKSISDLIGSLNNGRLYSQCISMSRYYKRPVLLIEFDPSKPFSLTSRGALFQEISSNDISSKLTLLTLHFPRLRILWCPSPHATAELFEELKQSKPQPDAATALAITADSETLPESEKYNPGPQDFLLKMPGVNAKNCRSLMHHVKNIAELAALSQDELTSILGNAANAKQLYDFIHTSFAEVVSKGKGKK
T1 sequence (P07992 1-297): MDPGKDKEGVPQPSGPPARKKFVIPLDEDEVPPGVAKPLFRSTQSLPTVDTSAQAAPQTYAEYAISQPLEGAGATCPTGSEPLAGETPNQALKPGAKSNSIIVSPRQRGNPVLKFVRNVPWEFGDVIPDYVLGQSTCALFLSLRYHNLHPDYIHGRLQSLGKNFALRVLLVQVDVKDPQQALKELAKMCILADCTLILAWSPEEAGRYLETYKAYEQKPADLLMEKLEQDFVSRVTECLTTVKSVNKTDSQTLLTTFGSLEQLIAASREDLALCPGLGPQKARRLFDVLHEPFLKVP
The test can be described thus: fluorescence based DNA incision assay with purified ERCC1-XPF. The format is biochemical. The note with it: purified enzyme, forked fluorescent DNA substrate. From the text: Described herein is a robust fluorescence based incision assay which was used to initially screen a diverse drug library (˜2,000 compounds) in order to identify inhibitors of the ERCC1-XPF endonuclease. From the initial screen, five (5) small molecule Hits were identified that inhibited ERCC1-XPF nuclease activity with micromolar to nanomolar potency.
(§1) For at least one reason, the lead compound was selected based on having nanomolar potency in the fluorescence assay (FIG. 2) and having the best response in enhancing cisplatin efficacy in cell culture models. Titration of lead compound in the ERCC1-XPF fluorescence assay yields an IC50 value of 400-500 nM (FIG. 2).
(§2) The synthesized compounds were tested in the in vitro fluorescence incision assay and radiolabeled DNA incision assay for potency and selectivity against ERCC1-XPF. These assays are based on forked synthetic DNA substrates and purified enzyme. The fluorescent DNA substrate is designed such that a fluorophore (Fl) is incorporated into the top DNA strand while a quencher (Q) molecule is incorporated in the bottom DNA strand and in close proximity to the Fl (FIG. 5).
When the DNA substrate is annealed, the Q quenches the fluorescent signal and results in low background fluorescence. […]

For a further test, the system named is cell culture. The test can be described thus: enhancement of cisplatin efficacy in cell culture. The format is cell-based. From the text:
The Tosyl adduct is necessary for compound 1's ability to enhance cisplatin activity and inhibit DNA repair. Without this functionality, no activity in cell culture was observed. Derivatives synthesized in Pathways B and C, take further advantage of the Tosyl functional group, including the sulfonate linkage itself. Pathway B focuses on varying the substitution on the toluene ring. By substitution of the methyl substituent with hydrogen (3a), as well as a halogen (3c) or a propyl group (3d), steric tolerance is adjusted at this position. Alternatively, addition of a heteroatom within the aromatic ring, whether it is an oxygen (3e) or a nitrogen (3f), has little effect upon the steric environment but alters the electronic nature of this key substituent. Removal of the aromatic ring and replacement with an alkene (3b) encompasses both the steric and electronic features at this position. Pathway C exemplifies compounds with differing linkers to the tosyl moiety, namely substitution of the sulfonate as a thioether (4a), sulfoxide (4b), ester (4c), and ether (4d) or amine (4e).

Test [1] concerns 2008/C13*5.25 (resistant) ovarian cancer cell line. The test can be described thus: colony survival after ERCC1-XPF siRNA and cisplatin treatment. The test is classed as cell-based. The note with it: control siRNA; 2008/C13*5.25 vs 2008. The source says:
FIG. 1: Colony survival in matched ovarian cancer cell lines. 2008 (sensitive, squares) and 2008/C13*5.25 (resistant, circles) ovarian cancer cell lines were transfected with control or ERCC1-XPF siRNA and subjected to cisplatin treatment. IC50 values are indicated.
In order to assess whether ERCC1-XPF influences cisplatin resistance in ovarian cancer cell lines, a matched set of parental sensitive (2008s) and daughter resistant cell lines (2008/C13*5.25) were obtained. These are well characterized cell lines for assessing cisplatin resistance and effects in ovarian cancer.
Following greater than 90% ERCC1-XPF knockdown (data not shown), the resistant daughter cell line has a nearly 5-fold change in cisplatin sensitivity, making the cells as sensitive as the parental sensitive cell line (compare open circles with filled squares).

The target of the next test is T2, ERCC1-XPF (Homo sapiens, UniProt P07992+Q92889).
T2 sequence (Q92889 1-916): T1 sequence (Q92889 1-916)
T2 sequence (P07992 1-297): T1 sequence (P07992 1-297)
The test is described as follows: radiolabeled DNA incision assay (radiometric inhibition assay). The format is biochemical. The following applies: read-out: 50% inhibition in radiometric inhibition assay. On the procedure:
as §1, §2

For test [2], the system named is cisplatin resistant ovarian cancer cell line (2008/C13*5.25). The test is described as follows: colony survival with cisplatin IC50 concentration, lead compound titrated (Combination Factor). The format is cell-based. The note with it: 2008/C13*5.25, colony survival. On the procedure: (§3) Cells were treated with the cisplatin IC50 concentration while the lead compound was titrated into the experiment, and colony survival assessed. The Combination Factor is the concentration of lead compound that is required to enhance cisplatin IC50 values by 2-fold.

Test [3] has as its system lung cancer cell line (H460). The test is described as above. The test is classed as cell-based. Here is the method:
as §3

SMILES strings stand for the structures. Like-named read-outs stand apart in the source and are kept apart here.

As to `COc1cc(S(=O)(=O)O)cc2cc(S(=O)(=O)O)cc(N)c12` [boxed portion of the molecule, reference compound], the IC50 on ERCC1-XPF endonuclease (read-out: 50% fluorescent inhibition in the fluorescence incision assay) was in the range of 3.2 to 3.6 µM. In addition, in the test on cell culture (data not shown), the “effect in cell culture” value is “no effect”.

With `N.N.[Cl][Pt][Cl]` [cisplatin], in test [1], the “fold resistance to cisplatin, comparing IC50 values to the parental sensitive cell line” value is around 4 fold.

Turning to `Cc1ccc(S(=O)(=O)Oc2cc(S(=O)(=O)O)cc3cc(S(=O)(=O)O)cc(N)c23)cc1` [compound 1], the IC50 was 0.4 to 0.5 µM on ERCC1-XPF endonuclease (read-out: IC50 (50% inhibition) in ERCC1-XPF fluorescence assay); 0.4 to 0.5 µM at ERCC1-XPF; 4 µM in the test with cell culture (with cisplatin, cell line not stated, read-out: enhancing cisplatin efficacy in cell culture (IC50)). For the same compound, the “Combination Factor: concentration of lead compound required to enhance cisplatin IC50 values by 2-fold” value in test [2] is “low micromolar range”; in test [3] it was 7 to 8 µM.

The values above are taken from patent US9821008B2, “Inhibitors of ERCC1-XPF and methods of using the same” (The University of Toledo, priority 2013, dated 2017).
